ChEMBL document CHEMBL5360672, “Identification of Novel Dual-Target Estrogen Receptor α Degraders with Tubulin Inhibitory Activity for the Treatment of Endocrine-Resistant Breast Cancer” (J Med Chem, 2023)
Active and inactive are the calls of the source. The calls are words filed in the database; no cut-off is given here.

Experiments:
[1] = biological target: Estrogen receptor beta (Homo sapiens) (UniProt Q92731); experiment: Binding affinity to human ERbeta assessed as relative binding affinity incubated under vibration for 1 min followed by 2 hrs incubation under dark condition by fluorescence polarization assay relative to estradiol; settings: time 121.0 min
Chain of Estrogen receptor beta (Homo sapiens) (Q92731 whole entry): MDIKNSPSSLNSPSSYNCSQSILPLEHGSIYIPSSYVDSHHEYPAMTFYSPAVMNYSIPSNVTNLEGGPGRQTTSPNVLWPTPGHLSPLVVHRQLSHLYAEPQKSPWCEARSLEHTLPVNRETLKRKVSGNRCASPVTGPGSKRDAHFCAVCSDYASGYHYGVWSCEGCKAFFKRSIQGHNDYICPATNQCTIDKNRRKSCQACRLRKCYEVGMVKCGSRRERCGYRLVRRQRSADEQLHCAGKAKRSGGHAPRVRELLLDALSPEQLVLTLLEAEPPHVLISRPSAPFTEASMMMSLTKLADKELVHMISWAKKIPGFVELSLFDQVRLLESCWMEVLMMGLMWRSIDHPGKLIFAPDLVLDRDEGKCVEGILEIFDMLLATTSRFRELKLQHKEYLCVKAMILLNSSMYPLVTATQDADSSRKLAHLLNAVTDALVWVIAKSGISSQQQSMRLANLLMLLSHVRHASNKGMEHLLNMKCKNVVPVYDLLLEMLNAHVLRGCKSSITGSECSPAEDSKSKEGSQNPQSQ

MCF7 = experiment: Antiproliferative activity against ERalpha positive human MCF7 cells assessed as inhibition of cell proliferation incubated for 72 hrs by CCK8 assay; format: functional, cell-based; settings: MCF7, 72 h
[2] = Antiproliferative activity against human Tamoxifen-resistant LCC2 cells assessed as inhibition of cell proliferation incubated for 72 hrs by CCK8 assay; format: functional, cell-based
Estrogen receptor = biological target: T1, Estrogen receptor (Homo sapiens, UniProt P03372); experiment: Antagonist activity at ERalpha (unknown origin) expressed in HEK293T cells co-expressing ERbeta and ERE-luciferase reporter assessed as reduction in relative light unit incubated for 24 hrs by dual-luciferase reporter assay; format: cell-based
T1 sequence (P03372 whole entry): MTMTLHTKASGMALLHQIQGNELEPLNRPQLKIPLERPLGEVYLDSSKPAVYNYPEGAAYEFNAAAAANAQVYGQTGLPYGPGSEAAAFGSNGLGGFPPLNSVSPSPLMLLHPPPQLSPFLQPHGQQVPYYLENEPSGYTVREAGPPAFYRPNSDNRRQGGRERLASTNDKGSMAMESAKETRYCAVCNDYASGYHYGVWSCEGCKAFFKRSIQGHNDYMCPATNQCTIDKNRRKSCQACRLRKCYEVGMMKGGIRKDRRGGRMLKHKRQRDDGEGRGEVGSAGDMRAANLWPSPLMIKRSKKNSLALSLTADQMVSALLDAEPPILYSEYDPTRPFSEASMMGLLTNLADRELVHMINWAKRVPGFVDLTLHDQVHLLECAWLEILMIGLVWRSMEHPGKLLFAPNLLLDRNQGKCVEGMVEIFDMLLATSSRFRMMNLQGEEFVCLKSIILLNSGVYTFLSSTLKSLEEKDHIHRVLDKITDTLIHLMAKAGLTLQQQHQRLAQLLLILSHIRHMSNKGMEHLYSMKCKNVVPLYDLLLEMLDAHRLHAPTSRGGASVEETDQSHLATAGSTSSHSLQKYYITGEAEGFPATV

[3] = biological target: T2, Estrogen receptor (Homo sapiens) (UniProt P03372); experiment: Induction of ERalpha degradation in human MCF7 cells at 1 uM incubated for 6 to 24 hrs by Western blot analysis; format: cell-based; settings: time 6-24 hrs
T2 sequence (whole entry): T1 sequence (P03372 whole entry)

[4] = biological target: T2, Estrogen receptor (Homo sapiens); experiment: Induction of ERalpha degradation in human Tamoxifen-resistant LCC2 cells at 0.5 to 5 uM incubated for 6 to 24 hrs by Western blot analysis; format: cell-based; settings: Tamoxifen-resistant LCC2 cell, dose 0.5-5 µM, time 6-24 hrs
Tubulin (Homo sapiens) = Tubulin (Homo sapiens) (UniProt P68371+Q9H4B7+P0DPH7+P68366+Q13509+Q71U36+P04350+Q3ZCM7+P07437+P68363+Q9BQE3+Q6PEY2+Q13885+Q9BVA1+Q9BUF5); experiment: Disruption of microtubule network in human MCF7 cells assessed as chaotic microtubule network at 2 uM incubated for 48 hrs by DAPI staining based confocal laser scanning microscopic analysis; format: cell-based
LCC2 = experiment: Induction of cell cycle arrest in human LCC2 cells assessed as accumulation of cells at G2/M phase incubated for 48 hrs by flow cytometry analysis; format: functional, cell-based; settings: dose 6-24 µM
[5] = Toxicity in Balb/c nude mouse xenografted with human MCF7 cells assessed as body weight loss at 2 to 4 mg/kg, ip administered every other day for 20 days; format: organism-based; settings: in vivo, 480 h, dose 2-4 mg/kg, time 20 day
Mus musculus = experiment: In vivo induction of ERalpha degradation in BALB/c nude mouse xenografted with human MCF7 cells assessed as decrease in ERalpha expression in tumor at 2 to 4 mg/kg, ip administered every other day for 20 days by Western blot analysis; format: functional, organism-based; settings: dose 2-4 mg/kg, time 20.0 day
[6] = Toxicity in Balb/c nude mouse xenografted with human MCF7 cells assessed as effect on liver morphology at 2 to 4 mg/kg, ip administered every other day for 20 days by H&E staining based analysis; format: organism-based; settings: in vivo, 480 h, dose 2-4 mg/kg, time 20 day

N#C[Se]CCCCCC(=O)Nc1ccc(C2=C(c3ccc(O)cc3)C3CC(S(=O)(=O)N(CC(F)(F)F)c4ccccc4F)C2O3)cc1 (stereo unspecified)
RBA [1]: 0.1%
IC50 (MCF7): 60 nM
IC50 [2]: 1590 nM
IC50 (Estrogen receptor): 56 nM
Activity [3]: Active
Activity [4]: Active
Activity (Tubulin (Homo sapiens)): Active
Activity (LCC2): Dose-Dependent Effect
Activity [5]: Non-Toxic
Activity (Mus musculus): Active
Activity [6]: Non-Toxic
